# Laboratory results: patent EP3046573B1, “AMYLIN ANALOGUES” (Zealand Pharma A/S, priority 2013, dated 2015)
# Where two headings read alike, the source gives them in different places. Numbered stars: 1 amine (or outer) side, 2 acyl side, 3 side chain; on linkers, the order of the positions; unused ones are H or OH. Bridge positions count the residues as written; N and C are the ends. Square brackets hold non-standard residues; d marks the D form. Peptide text beside a SMILES is read from it. * marks the point of attachment. C20 diacid = O=C(O)CCCCCCCCCCCCCCCCCCC(=O)*; Pro(4R-NH2) = N[C@H]1CN[C@H](C(=O)O)C1; γGlu = O=C(O)[C@H](CCC(=O)[*:2])N[*:1]; Hyp = O=C(O)[C@@H]1C[C@@H](O)CN1; NMeI = CC[C@H](C)[C@H](NC)C(=O)O; Aze = O=C(O)[C@@H]1CCN1; Sar = CNCC(=O)O
# Columns and labels:
# [1] = Solubility assessment (turbidity absorbance at 325 nm); format: physicochemical; conditions: stock 2 mg/ml diluted 1:1, ambient temperature (typically 25°C), n=1; for Solubility, Acetate buffer pH 4: 100 mM acetate buffer pH 4.0; for Solubility, Acetate buffer pH 5: 100 mM acetate buffer pH 5.0; for Solubility, Histidine buffer pH 6: 100 mM histidine buffer pH 6.0; for Solubility, Histidine buffer pH 7: 100 mM histidine buffer pH 7.0; for Solubility, Phosphate buffer pH 6: 100 mM phosphate buffer pH 6.0; for Solubility, Phosphate buffer pH 7: 100 mM phosphate buffer pH 7.0; for Solubility, Phosphate buffer pH 7.5: 100 mM phosphate buffer pH7.5
# Method in brief: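 Turbidity read as absorbance at 325 nm (also 280 nm), single samples at ambient temperature (typically 25°C); ≤ 0.02 units counts as ≥ 1 mg/ml soluble. Samples made by 1:1 dilution of a 2 mg/ml acidic stock into 100 mM acetate, histidine or phosphate buffers, pH 4.0–7.5.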
# [2] = target: T1, human amylin receptor 3 (hAMYR3) consisting of hCTR2 co-expressed with human Receptor Activity Modifying Protein 3 (hRAMP3) (Homo sapiens, UniProt O60896+P30988); test: hAMYR3 assay: induction of cAMP (AlphaScreen cAMP Assay kit) in COS7 cells expressing hAMYR3; format: cell-based
# T1 construct: expressed in transfected cells
# T1 sequence (P30988 25-474): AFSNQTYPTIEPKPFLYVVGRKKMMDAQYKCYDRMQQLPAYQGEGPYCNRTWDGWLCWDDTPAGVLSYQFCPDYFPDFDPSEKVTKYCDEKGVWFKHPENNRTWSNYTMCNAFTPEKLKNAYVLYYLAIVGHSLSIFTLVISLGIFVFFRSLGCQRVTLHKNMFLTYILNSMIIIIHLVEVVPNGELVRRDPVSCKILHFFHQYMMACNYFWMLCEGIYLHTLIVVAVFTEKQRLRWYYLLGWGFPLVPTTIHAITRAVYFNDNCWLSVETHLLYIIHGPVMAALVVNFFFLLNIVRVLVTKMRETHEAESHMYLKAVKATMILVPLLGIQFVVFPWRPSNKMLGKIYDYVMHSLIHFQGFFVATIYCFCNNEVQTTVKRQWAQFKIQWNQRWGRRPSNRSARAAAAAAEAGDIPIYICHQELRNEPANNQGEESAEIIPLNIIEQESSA
# T1 sequence (O60896 24-148 partner): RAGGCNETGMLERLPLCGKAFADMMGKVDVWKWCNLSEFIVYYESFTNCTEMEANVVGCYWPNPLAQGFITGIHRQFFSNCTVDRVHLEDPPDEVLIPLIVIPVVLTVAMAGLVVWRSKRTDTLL
# Method in brief: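 cAMP accumulation read by AlphaScreen in lysates of RAMP-naive COS7 cells stably transfected with hCTR2 plus hRAMP3. Cells exposed to peptide dilutions for 15 min, 37° C, with 100 µM IBMX; 4PL fitting gave EC50 and efficacy relative to pramlintide.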
# [3] = target: T2, human calcitonin receptor (hCTR2) (Homo sapiens, UniProt P30988); test: hCTR2 assay: induction of cAMP (AlphaScreen cAMP Assay kit) in COS7 cells expressing hCTR2; format: cell-based
# T2 construct: expressed in transfected cells
# T2 sequence (P30988 25-474): T1 sequence (P30988 25-474)
# Method in brief: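 cAMP induction was measured by AlphaScreen in COS7 cells stably expressing hCTR2 without RAMPs, after 15 min at 37° C with increasing peptide concentrations, 100 µM IBMX and 0.1% casein (Tyrode, pH 7.4). A 4-parameter logistic fit gave EC50 and % efficacy versus pramlintide.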
Structure (SMILES),"Solubility, Acetate buffer pH 4 [1]","Solubility, Acetate buffer pH 5 [1]","Solubility, Histidine buffer pH 6 [1]","Solubility, Histidine buffer pH 7 [1]","Solubility, Phosphate buffer pH 6 [1]","Solubility, Phosphate buffer pH 7 [1]","Solubility, Phosphate buffer pH 7.5 [1]",EC50 [2] [nM],EC50 [3] [nM],"EC50 ([3]; cAMP induction in COS7 cells expressing hCTR2, average of a minimum of 3 determinations, read-out: hCTR2 EC50) [nM]"
"CC[C@H](C)[C@@H](C(=O)N[C@@H](CC(C)C)C(=O)N[C@@H](CO)C(=O)N[C@@H](CO)C(=O)N[C@H](C(=O)N[C@@H](CC(N)=O)C(=O)N[C@H](C(=O)NCC(=O)N[C@@H](CO)C(=O)N[C@@H](CC(N)=O)C(=O)N[C@H](C(=O)N1C[C@H](O)C[C@H]1C(N)=O)[C@@H](C)O)C(C)C)[C@@H](C)O)N(C)C(=O)[C@H](C)NC(=O)CN(C)C(=O)[C@H](Cc1ccccc1)NC(=O)[C@H](CC(N)=O)NC(=O)[C@H](CC(N)=O)NC(=O)[C@H](CO)NC(=O)[C@H](CO)NC(=O)[C@H](CCCNC(=N)N)NC(=O)[C@H](Cc1c[nH]cn1)NC(=O)[C@H](CC(C)C)NC(=O)[C@H](Cc1ccccc1)NC(=O)[C@H](CCC(=O)O)NC(=O)[C@H](C)NC(=O)[C@H](CC(C)C)NC(=O)[C@H](CCCNC(=N)N)NC(=O)[C@H](CCC(N)=O)NC(=O)[C@@H](NC(=O)[C@H](C)NC(=O)[C@@H]1CSSC[C@H](NC(=O)[C@H](CCCNC(=N)N)NC(=O)CC[C@H](NC(=O)CCCCCCCCCCCCCCCCCCC(=O)O)C(=O)O)C(=O)N[C@@H](CC(N)=O)C(=O)N[C@@H]([C@@H](C)O)C(=O)N[C@@H](C)C(=O)N[C@@H]([C@@H](C)O)C(=O)N1)[C@@H](C)O [Compound 105, [19CD]-isoGlu-RC()NTATC()ATQRLAEFLHRSSNNF-Gly(Me)-A-Ile(Me)-LSSTNVGSNT-Hyp-NH2] ({C20 diacid-γGlu}-RCNTATCATQRLAEFLHRSSNNF[Sar]A[NMeI]LSSTNVGSNT[Hyp]-NH2; disulfide 2-7)",SS (SS indicates solubility ≥ 1mg/ml),SS (SS indicates solubility ≥ 1mg/ml),SS (SS indicates solubility ≥ 1mg/ml),SS (SS indicates solubility ≥ 1mg/ml),SS (SS indicates solubility ≥ 1mg/ml),SS (SS indicates solubility ≥ 1mg/ml),SS (SS indicates solubility ≥ 1mg/ml),0.092,0.083,
"CC[C@H](C)[C@@H](C(=O)N[C@@H](CC(C)C)C(=O)N[C@@H](CO)C(=O)N[C@@H](CO)C(=O)N[C@H](C(=O)N[C@@H](CC(N)=O)C(=O)N[C@H](C(=O)NCC(=O)N[C@@H](CO)C(=O)N[C@@H](CC(N)=O)C(=O)N[C@H](C(=O)N1CC[C@H]1C(N)=O)[C@@H](C)O)C(C)C)[C@@H](C)O)N(C)C(=O)[C@H](C)NC(=O)CN(C)C(=O)[C@H](Cc1ccccc1)NC(=O)[C@H](CC(N)=O)NC(=O)[C@H](CC(N)=O)NC(=O)[C@H](CO)NC(=O)[C@H](CO)NC(=O)[C@H](CCCNC(=N)N)NC(=O)[C@H](Cc1c[nH]cn1)NC(=O)[C@H](CC(C)C)NC(=O)[C@H](Cc1ccccc1)NC(=O)[C@H](CCC(=O)O)NC(=O)[C@H](C)NC(=O)[C@H](CC(C)C)NC(=O)[C@H](CCCNC(=N)N)NC(=O)[C@H](CCC(N)=O)NC(=O)[C@@H](NC(=O)[C@H](C)NC(=O)[C@@H]1CSSC[C@H](NC(=O)[C@H](CCCNC(=N)N)NC(=O)CC[C@H](NC(=O)CCCCCCCCCCCCCCCCCCC(=O)O)C(=O)O)C(=O)N[C@@H](CC(N)=O)C(=O)N[C@@H]([C@@H](C)O)C(=O)N[C@@H](C)C(=O)N[C@@H]([C@@H](C)O)C(=O)N1)[C@@H](C)O [Compound 107, [19CD]-isoGlu-RC()NTATC()ATQRLAEFLHRSSNNF-Gly(Me)-A-Ile(Me)-LSSTNVGSNT-Aze-NH2] ({C20 diacid-γGlu}-RCNTATCATQRLAEFLHRSSNNF[Sar]A[NMeI]LSSTNVGSNT[Aze]-NH2; disulfide 2-7)",SS (SS indicates solubility ≥ 1mg/ml),SS (SS indicates solubility ≥ 1mg/ml),SS (SS indicates solubility ≥ 1mg/ml),SS (SS indicates solubility ≥ 1mg/ml),SS (SS indicates solubility ≥ 1mg/ml),SS (SS indicates solubility ≥ 1mg/ml),SS (SS indicates solubility ≥ 1mg/ml),0.52,0.18,
"CC[C@H](C)[C@@H](C(=O)N[C@@H](CC(C)C)C(=O)N[C@@H](CO)C(=O)N[C@@H](CO)C(=O)N[C@H](C(=O)N[C@@H](CC(N)=O)C(=O)N[C@H](C(=O)NCC(=O)N[C@@H](CO)C(=O)N[C@@H](CC(N)=O)C(=O)N[C@H](C(=O)N1C[C@H](N)C[C@H]1C(N)=O)[C@@H](C)O)C(C)C)[C@@H](C)O)N(C)C(=O)[C@H](C)NC(=O)CN(C)C(=O)[C@H](Cc1ccccc1)NC(=O)[C@H](CC(N)=O)NC(=O)[C@H](CC(N)=O)NC(=O)[C@H](CO)NC(=O)[C@H](CO)NC(=O)[C@H](CCCNC(=N)N)NC(=O)[C@H](Cc1c[nH]cn1)NC(=O)[C@H](CC(C)C)NC(=O)[C@H](Cc1ccccc1)NC(=O)[C@H](CCC(=O)O)NC(=O)[C@H](C)NC(=O)[C@H](CC(C)C)NC(=O)[C@H](CCCNC(=N)N)NC(=O)[C@H](CCC(N)=O)NC(=O)[C@@H](NC(=O)[C@H](C)NC(=O)[C@@H]1CSSC[C@H](NC(=O)[C@H](CCCNC(=N)N)NC(=O)CC[C@H](NC(=O)CCCCCCCCCCCCCCCCCCC(=O)O)C(=O)O)C(=O)N[C@@H](CC(N)=O)C(=O)N[C@@H]([C@@H](C)O)C(=O)N[C@@H](C)C(=O)N[C@@H]([C@@H](C)O)C(=O)N1)[C@@H](C)O [Compound 110, [19CD]-isoGlu-RC()NTATC()ATQRLAEFLHRSSNNF-Gly(Me)-A-Ile(Me)-LSSTNVGSNT-Apr-NH2] ({C20 diacid-γGlu}-RCNTATCATQRLAEFLHRSSNNF[Sar]A[NMeI]LSSTNVGSNT[Pro(4R-NH2)]-NH2; disulfide 2-7)",SS (SS indicates solubility ≥ 1mg/ml),SS (SS indicates solubility ≥ 1mg/ml),SS (SS indicates solubility ≥ 1mg/ml),SS (SS indicates solubility ≥ 1mg/ml),II (II indicates solubility ≤ 1 mg/ml),SS (SS indicates solubility ≥ 1mg/ml),SS (SS indicates solubility ≥ 1mg/ml),0.087,0.16,
"CC[C@H](C)[C@@H](C(=O)N[C@@H](CC(C)C)C(=O)N[C@@H](CO)C(=O)N[C@@H](CO)C(=O)N[C@H](C(=O)N[C@@H](CCC(=O)O)C(=O)N[C@H](C(=O)NCC(=O)N[C@@H](CO)C(=O)N[C@@H](CCC(=O)O)C(=O)N[C@H](C(=O)N1CCC[C@H]1C(N)=O)[C@@H](C)O)C(C)C)[C@@H](C)O)N(C)C(=O)[C@H](C)NC(=O)CN(C)C(=O)[C@H](Cc1ccccc1)NC(=O)[C@H](CO)NC(=O)[C@H](CO)NC(=O)[C@H](CO)NC(=O)[C@H](CO)NC(=O)[C@H](CCCNC(=N)N)NC(=O)[C@H](Cc1c[nH]cn1)NC(=O)[C@H](CC(C)C)NC(=O)[C@H](Cc1ccccc1)NC(=O)[C@H](CCC(=O)O)NC(=O)[C@H](C)NC(=O)[C@H](CC(C)C)NC(=O)[C@H](CCCNC(=N)N)NC(=O)[C@H](CC(=O)O)NC(=O)[C@@H](NC(=O)[C@H](C)NC(=O)[C@@H]1CSSC[C@H](NC(=O)[C@H](CCCNC(=N)N)NC(=O)CC[C@H](NC(=O)CCCCCCCCCCCCCCCCCCC(=O)O)C(=O)O)C(=O)N[C@@H](CC(N)=O)C(=O)N[C@@H]([C@@H](C)O)C(=O)N[C@@H](C)C(=O)N[C@@H]([C@@H](C)O)C(=O)N1)[C@@H](C)O [Compound 120, [19CD]-isoGlu-RC()NTATC()ATDRLAEFLHRSSSSF-Gly(Me)-A-Ile(Me)-LSSTEVGSETP-NH2] ({C20 diacid-γGlu}-RCNTATCATDRLAEFLHRSSSSF[Sar]A[NMeI]LSSTEVGSETP-NH2; disulfide 2-7)",SS (SS indicates solubility ≥ 1mg/ml),SS (SS indicates solubility ≥ 1mg/ml),SS (SS indicates solubility ≥ 1mg/ml),SS (SS indicates solubility ≥ 1mg/ml),SS (SS indicates solubility ≥ 1mg/ml),SS (SS indicates solubility ≥ 1mg/ml),SS (SS indicates solubility ≥ 1mg/ml),0.15,,0.043
